Laboratory results: patent US10808283B2, “Methods and kits for the molecular subtyping of tumors” (BioNTech Diagnostics GmbH, priority 2013, dated 2020)

What was measured:
[1] = test system: patients with luminal B tumors; assay: Kaplan Meier analysis of overall survival, FinHER patients with luminal B tumors; assay type: in vivo, human; set-up: overall survival: concentration or dose not given beside the values; settings: for HR, overall survival: docetaxel vs vinorelbine
From the text: FIG. 10 depicts a Kaplan Meier analysis of the overall survival of patients with luminal B tumors. […] B: en the tumor subtype is defined by IHC, the benefit of docetaxel for luminal B patients cannot be shown (95% vs. 92%, HR 0.617; CI 0.235-1.623).
FIG. 11 depicts a Kaplan Meier analysis of the overall survival of patients with luminal B tumors, adjusted for tumor histologic type by Cox Regression as specified in the SAP. A: The prediction of the docetaxel benefit by RT-qPCR kit remains significant (97% vs. 88%, HR 0.232; CI 0.087-0.624). B: Subtyping by IHC is not predictive for a docetaxel benefit (96% vs. 92%, HR 0.510; CI 0.184-1.414).
(§1) For the evaluation of breast tumors, 855 out of 1010 breast cancer patients of the FinHER study (Joensuu et al. (2006), N Engl J Med, 354:809-820) could be used. The mean cut-off values (given as 40-ΔCT values) were as follows: HER2: 38; ESR1: 34; PGR: 30,2; Ki67: 31.7; and RACGAP1: 34.2. The cut-off values for HER2 and ESR1 were determined based on evaluation of previous studies (Koutras et al. (2008), Brit. J. of Cane., 99:1775-1785; Pentheroudakis et al. (2009), Breast Cancer Res Treat 2009, 116:131-143) using 268 samples and were applied to the FinHER study (proportional hazards model validation). CALM2 served as reference gene.
(§2) FIGS. 10 to 19 depict Kaplan-Meier survival curves for different tumor subtypes (luminal B, HER2-positive, luminal A, and triple-negative breast cancer [TNBC]) treated with different chemotherapy agents (docetaxel or vinorelbine). Subytpes defined by RT-qPCR according to the present invention are shown in panel A, whereas subtypes defined by IHC are shown in panel B. Dotted lines mark the 5 year time point for outcome calculations.

luminal B tumor patients = assay: Kaplan Meier analysis of distant metastasis free survival (DMFS), luminal B tumor patients; assay type: in vivo, human; settings: for distant metastasis free survival (DMFS): 5 year time point; for distant metastasis free survival: adjusted for number of metastatic lymph nodes, tumor size and histologic type, 5 years
From the text: FIG. 12 depicts a Kaplan Meier analysis of distant metastasis free survival (DMFS) of luminal B tumor patients. A: When defined by RT-qPCR, luminal B patients have a higher probability to remain free of distant metastasis when treated with docetaxel-FEC as compared to vinorelbine-FEC (89% vs. 78% respectively, HR 0.471; CI 0.263-0.843). B: When luminal B tumors are defined by IHC, survival differences are not observed between different treatment regimens (87% vs. 86%, HR 0.938 CI 0.474-1.856).
FIG. 13 depicts a Kaplan Meier analysis of distant metastasis free survival of patients with luminal B tumors, adjusted for number of metastatic lymph nodes, tumor size and histologic type by Cox Regression as specified in the SAP. A: By using the subtyping assay of the present invention the effect remains significant (90 vs. 78%, HR 0.409; CI 0.219-0.764). B: By contrast there is no effect when tumor subtyping occurs by IHC (89% vs. 85%, HR 0.674; CI 0.307-1.481).
as §1, §2

[2] = test system: HER2-positive tumor patients; assay: Kaplan Meier analysis of overall survival, HER2-positive tumor patients; assay type: in vivo, human; settings: for HR, overall survival: docetaxel vs vinorelbine; for overall survival: 5 year time point
From the text: FIG. 14 depicts a Kaplan Meier analysis of the overall survival of HER2-positive tumor patients. […] B: Similar results are shown for tumors subtyped by IHC (86% vs. 89%, HR 1.175; CI 0.518-2.663).
as §1, §2

HER2-positive tumors = assay: Kaplan Meier analysis of distant metastasis free survival, HER2-positive tumors; assay type: in vivo, human; settings: for HR, DMFS: docetaxel vs vinorelbine; for distant metastasis free survival: 5 year time point
Procedure: FIG. 15 depicts a Kaplan Meier analysis of distant metastasis free survival of HER2-positive tumors.
as §1, §2

luminal A tumors = assay: Kaplan Meier analysis of overall survival, luminal A tumors; assay type: in vivo, human; settings: for HR, overall survival: docetaxel vs vinorelbine; for overall survival: 5 year time point
From the text: FIG. 16 depicts a Kaplan Meier analysis of overall survival of luminal A tumors. […] B: By contrast, when defined by IHC, luminal A patients show a weak, yet non-significant trend towards longer overall survival (97 vs. 93% HR 0.443; CI 0.114-1.716) when treated with docetaxel as compared to vinorelbine.
as §1, §2

luminal A tumor patients = assay: Kaplan Meier analysis of distant metastasis free survival, luminal A tumor patients; assay type: in vivo, human; settings: for HR, DMFS: docetaxel vs vinorelbine; for distant metastasis free survival: 5 year time point
Procedure: FIG. 17 depicts a Kaplan Meier analysis of distant metastasis free survival of luminal A tumor patients.
as §1, §2

TNBC tumor patients [3] = assay: Kaplan Meier analysis of overall survival, TNBC tumor patients; assay type: in vivo, human; settings: for HR, overall survival: docetaxel vs vinorelbine; for overall survival: 5 year time point
From the text: FIG. 18 depicts a Kaplan Meier analysis of overall survival of TNBC tumor patients. […] B: When defined by IHC, TNBC patients show a weak, yet non-significant trend towards longer overall survival (88% vs. 80%, HR 0.552; CI 0.207-1.472).
as §1, §2

TNBC tumor patients [4] = assay: Kaplan Meier analysis of distant metastasis free survival, TNBC tumor patients; assay type: in vivo, human; settings: for distant metastasis free survival: 5 year time point; for HR, DMFS: docetaxel vs vinorelbine
From the text: FIG. 19 depicts a Kaplan Meier analysis of distant metastasis free survival of TNBC tumor patients. […] B: IHC-defined TNBC patients show a weak, yet non-significant trend towards longer distant metastasis free survival (82% vs. 72%, HR 0.615; CI 0.284-1,333) when treated with docetaxel as compared to vinorelbine.
as §1, §2

[5] = FinHER clinical trial; docetaxel compared with vinorelbine; cited from earlier work
[6] = FIG. 10A, luminal B defined by RT-qPCR, 5 year time point, combined with FEC
[7] = FIG. 10B, luminal B defined by IHC, 5 year time point
[8] = FIG. 12A, luminal B defined by RT-qPCR
[9] = FIG. 12B, luminal B defined by IHC
[10] = FIG. 11A, luminal B by RT-qPCR, adjusted for tumor histologic type by Cox Regression, 5 years
[11] = FIG. 11B, luminal B by IHC, adjusted for tumor histologic type by Cox Regression, 5 years
[12] = FIG. 14A, HER2-positive defined by RT-qPCR
[13] = FIG. 14B, HER2-positive subtyped by IHC
[14] = FIG. 15A, HER2-positive defined by method of the invention (RT-qPCR)
[15] = FIG. 15B, HER2-positive defined by IHC
[16] = FIG. 16A, luminal A defined by RT-qPCR
[17] = FIG. 16B, luminal A defined by IHC
[18] = FIG. 17A, luminal A defined by RT-qPCR
[19] = FIG. 17B, luminal A IHC-subtyped
[20] = FIG. 18A, TNBC defined by RT-qPCR

| Compound | overall survival [1, 6] [%] | overall survival [1, 7] [%] | distant metastasis free survival (DMFS) (luminal B tumor patients; [8]) [%] | distant metastasis free survival (DMFS) (luminal B tumor patients; [9]) [%] | overall survival [1, 10] [%] | overall survival [1, 11] [%] | distant metastasis free survival (luminal B tumor patients; FIG. 13A, luminal B by RT-qPCR) [%] | distant metastasis free survival (luminal B tumor patients; FIG. 13B, luminal B by IHC) [%] | overall survival [2, 12] [%] | overall survival [2, 13] [%] | distant metastasis free survival (HER2-positive tumors; [14]) [%] | distant metastasis free survival (HER2-positive tumors; [15]) [%] | overall survival (luminal A tumors; [16]) [%] | overall survival (luminal A tumors; [17]) [%] | distant metastasis free survival (luminal A tumor patients; [18]) [%] | distant metastasis free survival (luminal A tumor patients; [19]) [%] | overall survival (TNBC tumor patients [3]; [20]) [%] | overall survival (TNBC tumor patients [3]; FIG. 18B, TNBC defined by IHC) [%] | distant metastasis free survival (TNBC tumor patients [4]; FIG. 19A, RT-qPCR-defined TNBC) [%] | distant metastasis free survival (TNBC tumor patients [4]; FIG. 19B, IHC-defined TNBC) [%] | further results |
| --- | --- | --- | --- | --- | --- | --- | --- | --- | --- | --- | --- | --- | --- | --- | --- | --- | --- | --- | --- | --- | --- |
| vinorelbine | 89 | 92 | 78 | 86 | – | – | – | – | – | – | – | – | – | – | – | – | – | – | – | – | – |
| CC(=O)O[C@@]12CO[C@@H]1C[C@H](O)[C@@]1(C)C(=O)[C@H](O)C3=C(C)[C@@H](OC(=O)[C@H](O)[C@@H](NC(=O)OC(C)(C)C)c4ccccc4)C[C@@](O)([C@@H](OC(=O)c4ccccc4)[C@H]21)C3(C)C [docetaxel] | – | 95 | – | – | 97 | 96 | 90 | 89 | 87 | 86 | 80 | 78 | 95 | 97 | 92 | 93 | 84 | 88 | 74 | 82 | HR, overall survival ([1]; FIG. 10B, luminal B defined by IHC): 0.617; HR, overall survival ([1]; FIG. 11A, luminal B by RT-qPCR, adjusted for tumor histologic type): 0.232; HR, overall survival ([1]; FIG. 11B, luminal B by IHC, adjusted for tumor histologic type): 0.510; benefit of docetaxel treatment ([1]; luminal B tumors classified by RT-qPCR, FIGS. 10 to 19, vs vinorelbine, combined with FEC): significant benefit; HR, DMFS (luminal B tumor patients; FIG. 13A, luminal B by RT-qPCR, adjusted for metastatic lymph nodes, tumor size, histologic type, docetaxel vs vinorelbine): 0.409; HR, DMFS (luminal B tumor patients; FIG. 13B, luminal B by IHC, adjusted for metastatic lymph nodes, tumor size, histologic type, docetaxel vs vinorelbine): 0.674; HR, overall survival ([2]; FIG. 14A, HER2-positive by RT-qPCR): 1.320; HR, overall survival ([2]; FIG. 14B, HER2-positive by IHC): 1.175; HR, DMFS (HER2-positive tumors; FIG. 15A, HER2-positive by RT-qPCR): 1.070; HR, DMFS (HER2-positive tumors; FIG. 15B, HER2-positive by IHC): 0.975; HR, overall survival (luminal A tumors; FIG. 16A, luminal A by RT-qPCR): 2.471; HR, overall survival (luminal A tumors; FIG. 16B, luminal A by IHC): 0.443; outcome compared to vinorelbine (luminal A tumors; luminal A tumors by RT-qPCR, effect does not reach statistical significance): even inferior to vinorelbine; HR, DMFS (luminal A tumor patients; FIG. 17A, luminal A by RT-qPCR): 0.826; HR, DMFS (luminal A tumor patients; FIG. 17B, luminal A by IHC): 0.553; HR, overall survival (TNBC tumor patients [3]; FIG. 18A, TNBC by RT-qPCR): 0.949; HR, overall survival (TNBC tumor patients [3]; FIG. 18B, TNBC by IHC): 0.552; HR, DMFS (TNBC tumor patients [4]; FIG. 19A, TNBC by RT-qPCR): 1.211; HR, DMFS (TNBC tumor patients [4]; FIG. 19B, TNBC by IHC): 0.615; adverse effects [5]: more commonly associated with adverse effects |
| CCC1=C[C@@H]2CN(C1)Cc1c([nH]c3ccccc13)[C@@](C(=O)OC)(c1cc3c(cc1OC)N(C)[C@H]1[C@@](O)(C(=O)OC)[C@H](OC(C)=O)[C@]4(CC)C=CCN5CC[C@]31[C@@H]54)C2 [vinorelbine] | – | – | – | – | 88 | 92 | 78 | 85 | 91 | 89 | 81 | 77 | 98 | 93 | 90 | 88 | 83 | 80 | 78 | 72 | – |
| docetaxel | 97 | – | 89 | 87 | – | – | – | – | – | – | – | – | – | – | – | – | – | – | – | – | Hazard Ratio [HR], overall survival ([1]; FIG. 10A, luminal B defined by RT-qPCR, docetaxel-FEC vs vinorelbine-FEC): 0.241; HR, DMFS (luminal B tumor patients; FIG. 12A, luminal B defined by RT-qPCR, docetaxel-FEC vs vinorelbine-FEC): 0.471; HR, DMFS (luminal B tumor patients; FIG. 12B, luminal B defined by IHC, docetaxel-FEC vs vinorelbine-FEC): 0.938 |
